Test results: patent US6359003B1 (Fumapharm AG, priority 1998, dated 2002)

Experiments:
Ehrlich ascites tumour = details: mice; cited from earlier work
[1] = high dosages; parenterally, transdermally and especially perorally; cited from earlier work
[2] = tested on: acute rejection of the graft (host-versus-graft reaction), rat kidney transplantation model; assay: Acute rejection model, rat kidney transplantation; type: in vivo; details: 33.3 mg/kg/day, day -28 to +28
Procedure: (§1) The effect of calcium methyl fumarate for alleviating the host-versus-graft reaction both in acute and chronic rejection models was investigated on a rat kidney transplantation model.
In order to investigate the influence of calcium methyl fumarate on the acute rejection of the graft, animal experiments were carried out (on rats). For this purpose, two groups of rats were treated with calcium methyl fumarate (CaMF; dosage: 33.3 mg/kg/day) or a placebo for a total period of 56 days [28 days before the kidney transplantation (−28) to 28 days after transplantation (+28)]. The number of animals with results fit for evaluation were n=9 in the placebo group and n=12 in the verum group. After that, the survival time of the animals in days after the transplantation was evaluated.

[3] = tested on: chronic rejection (host-versus-graft reaction), rat kidney transplantation model; assay: Chronic rejection model, rat kidney transplantation; type: in vivo; details: for Creatinine: serum; for Creatinine / Proteinuria: week 10 after transplantation, cyclosporine 1.5 mg/kg/day s.c. day 0-9
Text: as §1
In order to investigate the effect of calcium methyl fumarate on chronic rejection, three groups of rats received transplants (kidneys) in animal experiments. Groups 1 and 2 received a placebo (group 1) or calcium methyl fumarate (CaMF) (group 2) as active ingredient from day 28 before until day 28 after transplantation. The third group was given CaMF from day 30 to 60 after the kidney transplantation. All animals received cyclosporine from day 0 to 9 after the transplantation. The dosages administered were 1.5 mg/kg/day of cyclosporine (subcutaneously) and 33.3 mg/kg/day of CaMF (perorally).
The effect of the treatment was checked by measuring the creatinine levels in the serum, initially on day 0, 1, 3, 5, and 10 and then once a week, and by observing the urine protein levels which were measured once a week. In groups 1 and 2, n=10 animals each provided results suitable for evaluation; in group 3, n=9.

[4] = Group 2: 33.3 mg/kg/day perorally day -28 to +28, n=10
[5] = Group 3: 33.3 mg/kg/day perorally day +30 to +60, n=9

Molecule: O=C(O)/C=C/C(=O)O [Fumaric acid]
- Growth of the Ehrlich ascites tumour (Ehrlich ascites tumour): inhibits the growth

Molecule: O=C(O)/C(O)=C(\O)C(=O)O [dihydroxyl fumaric acid]
- Side effects and toxicity [1]: unacceptably severe side effects and high toxicity

Molecule: NC(=O)/C=C/C(N)=O [fumaramide]
- Side effects and toxicity [1]: unacceptably severe side effects and high toxicity

Molecule: N#C/C=C/C#N [fumaronitrile]
- Side effects and toxicity [1]: unacceptably severe side effects and high toxicity

Molecule: calcium methyl fumarate [CaMF]
- Average survival time in days versus placebo (in words) [2]: significant increase
- Number of surviving animals ([2]; >100 days after transplantation, n=12): 4
- Average survival time ([2]; after kidney transplantation, n=12): >42.3 ± 41.0 days
- Number of surviving animals ([2]; day 6 after transplantation, n=12): 12
- Number of surviving animals ([2]; day 7 after transplantation, n=12): 12
- Number of surviving animals ([2]; day 8 after transplantation, n=12): 12
- Number of surviving animals ([2]; day 9 after transplantation, n=12): 11
- Number of surviving animals ([2]; day 10 after transplantation, n=12): 10
- Number of surviving animals ([2]; day 12 after transplantation, n=12): 9
- Number of surviving animals ([2]; day 13 after transplantation, n=12): 8
- Number of surviving animals ([2]; day 14 after transplantation, n=12): 7
- Number of surviving animals ([2]; day 16 after transplantation, n=12): 6
- Number of surviving animals ([2]; day 17 after transplantation, n=12): 5
- Number of surviving animals ([2]; day 26 after transplantation, n=12): 5
- Number of surviving animals ([2]; day 27 after transplantation, n=12): 4
- Damage to the kidneys (in words) ([3]; 10 weeks of follow-up, versus placebo): significant inhibition of damage to the kidneys
- Creatinine [3, 4]: 55.7 ± 9.6 µmol/L
- Creatinine [3, 5]: 88.0 ± 42.4 µmol/L
- Proteinuria [3, 4]: 31.8 ± 18.4 mg/24 hrs
- Proteinuria [3, 5]: 52.5 ± 31.6 mg/24 hrs
